The supplement of paper PMC10331698
± gives the standard deviation of the averaged measurements.

Assays:
Assay in all cases: level (log10 ratio to DMSO vehicle control); higher = higher biomarker level / cell amount than vehicle control
[1] = compound: NS(=O)(=O)C(F)(F)C(F)(F)C(F)(F)C(F)(F)C(F)(F)C(F)(F)C(F)(F)C(F)(F)F [Perfluorooctanesulfonamide] (in DMSO)
Experimental: (§1)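 BioMAP Diversity Plus panel of 12 human primary cell co-culture systems (3C, 4H, LPS, SAg, BT, BF4T, BE3C, CASM3C, HDF3CGF, KF3CT, MyoF, Mphg). Compounds were added 1 h before stimulation and left for 24 h (MyoF 48 h; BT 72 h for soluble read-outs or 6 d for IgG). Biomarkers were read by ELISA, cytotoxicity by SRB, PBMC viability and proliferation by Alamar Blue. Each well value was divided by the mean of 8 DMSO control wells on the same plate and log10 transformed; duplicate blinded samples were tested at 4 concentrations.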

[2] = compound: CCOC(=O)CC(=O)C(F)(F)C(F)(F)F [Ethyl pentafluoropropionyl acetate] (in DMSO)
Experimental: as §1

[3] = compound: CN(C(=O)C(F)(F)C(F)(F)C(F)(F)F)[Si](C)(C)C [N-Methyl-N-trimethylsilylheptafluorobutyramide] (in DMSO)
Experimental: as §1

[4] = compound: O=S(=O)(O)CCC(F)(F)C(F)(F)C(F)(F)C(F)(F)C(F)(F)C(F)(F)C(F)(F)C(F)(F)F [8:2 Fluorotelomer sulfonic acid] (in DMSO)
Experimental: as §1

[5] = compound: O=C(O)C=C(C(F)(F)F)C(F)(F)F [3,3-Bis(trifluoromethyl)-2-propenoic acid] (in DMSO)
Experimental: as §1

[6] = compound: O=C(O)C(F)(F)OC(F)(F)C(F)(F)OC(F)(F)C(F)(F)OC(F)(F)C(F)(F)C(F)(F)C(F)(F)F [Perfluoro-3,6,9-trioxatridecanoic acid] (in DMSO); settings: 6700 nM
Experimental: as §1

[7] = compound: O=S(=O)(O)C(F)(F)C(F)(F)OC(F)(F)C(F)(F)F [Perfluoro(2-ethoxyethane)sulfonic acid] (in DMSO)
Experimental: as §1

Test System | level (log10) ([1]; 6700 nM) | level (log10) ([1]; 20000 nM) | level (log10) ([2]; 6700 nM) | level (log10) ([2]; 20000 nM) | level (log10) ([2]; 60000 nM) | level (log10) ([3]; 6700 nM) | level (log10) ([3]; 20000 nM) | level (log10) ([3]; 60000 nM) | level (log10) ([4]; 6700 nM) | level (log10) ([4]; 20000 nM) | level (log10) ([4]; 60000 nM) | level (log10) ([5]; 6700 nM) | level (log10) ([5]; 20000 nM) | level (log10) ([5]; 60000 nM) | level (log10) [6] | level (log10) ([7]; 6700 nM) | level (log10) ([7]; 20000 nM) | level (log10) ([7]; 60000 nM)
4H:CCL26/Eotaxin-3 | -0.0145 ± 0.013 | -0.03 ± 0.042 | -0.007 ± 0.024 | 0.006 ± 0.0085 | -0.019 ± 0.018 | -0.0005 ± 0.005 | -0.001 | -0.003 ± 0.024 | 0.0095 ± 0.06 | -0.0325 ± 0.015 | -0.075 ± 0.0042 | -0.02 ± 0.044 | -0.042 ± 0.0042 | -0.121 ± 0.0064 | -0.007 ± 0.038 | 0.049 ± 0.027 | 0.0585 ± 0.0078 | 0.0405 ± 0.00071
3C:CD87/uPAR | 0.006 ± 0.0099 | -0.0425 ± 0.016 | 0.011 ± 0.0042 | 0.0075 ± 0.00071 | -0.003 ± 0.011 | -0.0105 ± 0.0021 | -0.0155 ± 0.0078 | -0.007 ± 0.0042 | 0.0195 ± 0.016 | -0.001 ± 0.058 | -0.003 ± 0.03 | 0.0225 ± 0.0035 | 0.014 ± 0.02 | -0.0035 ± 0.013 | 0.0095 ± 0.028 | 0.0105 ± 0.0064 | 0.0165 ± 0.0021 | 0.007 ± 0.0071
BE3C:CXCL8/IL-8 | -0.123 ± 0.0099 | -0.192 ± 0.013 | 0.0095 ± 0.03 | 0.017 ± 0.021 | 0.032 ± 0.0014 | 0.019 ± 0.054 | 0.0175 ± 0.061 | 0.055 ± 0.11 | -0.0045 ± 0.022 | -0.06 ± 0.0014 | -0.134 ± 0.005 | -0.016 ± 0.0042 | -0.026 ± 0.0085 | -0.0075 ± 0.04 | -0.259 ± 0.0014 | 0.0135 ± 0.016 | 0.008 ± 0.038 | 0.04 ± 0.0028
SAg:SRB | 0.0065 ± 0.005 | -0.0515 ± 0.0064 | 0 ± 0.0057 | 0.004 | -0.003 ± 0.02 | 0.0055 ± 0.013 | 0.013 ± 0.0042 | 0.008 ± 0.0099 | -0.0075 ± 0.0035 | -0.0095 ± 0.0035 | -0.0335 ± 0.011 | 0.0025 ± 0.0021 | -0.006 ± 0.0085 | -0.0275 ± 0.005 | 0.0015 ± 0.013 | -0.0125 ± 0.013 | -0.0125 ± 0.0021 | -0.0185 ± 0.0092
BE3C:EGFR | -0.0005 ± 0.00071 | -0.044 ± 0.0014 | -0.006 ± 0.0099 | 0.0025 ± 0.005 | -0.006 ± 0.023 | -0.0065 ± 0.00071 | -0.0165 ± 0.013 | -0.01 ± 0.028 | 0.002 ± 0.0028 | -0.014 ± 0.018 | 0.004 ± 0.0099 | -0.015 ± 0.014 | -0.011 ± 0.0085 | -0.0015 ± 0.012 | -0.212 ± 0.022 | 0 ± 0.0014 | -0.019 ± 0.017 | -0.004
4H:CD62P/P-selectin | 0.028 ± 0.014 | -0.0235 ± 0.018 | 0.005 | -0.012 ± 0.038 | 0.009 ± 0.013 | -0.0065 ± 0.067 | -0.011 ± 0.052 | 0.002 ± 0.047 | -0.0315 ± 0.09 | -0.034 ± 0.099 | -0.015 ± 0.071 | 0.005 ± 0.0042 | -0.0505 ± 0.022 | -0.164 ± 0.028 | 0.033 ± 0.023 | -0.02 ± 0.014 | 0.0445 ± 0.005 | -0.0105 ± 0.015
SAg:CD40 | -0.028 ± 0.0042 | -0.1085 ± 0.00071 | 0.005 ± 0.0028 | -0.0205 ± 0.0021 | -0.0275 ± 0.0035 | -0.0185 ± 0.059 | -0.009 ± 0.0042 | -0.0075 ± 0.00071 | -0.013 ± 0.051 | -0.0215 ± 0.021 | -0.071 ± 0.051 | 0.0205 ± 0.005 | -0.01 ± 0.017 | -0.094 ± 0.038 | -0.0155 ± 0.043 | 0.0065 ± 0.0035 | 0.024 ± 0.0085 | 0.017 ± 0.0085
BT:sIL-17F | -0.0365 ± 0.084 | -0.0785 ± 0.11 | 0.0355 ± 0.0092 | 0.0155 ± 0.0035 | -0.012 ± 0.093 | -0.017 ± 0.027 | -0.008 ± 0.13 | 0.0005 ± 0.07 | -0.0295 ± 0.091 | 0.053 ± 0.0071 | 0.018 | -0.258 ± 0.031 | -0.426 ± 0.16 | -0.672 ± 0.021 | 0.018 ± 0.027 | -0.0315 ± 0.022 | -0.071 ± 0.031 | -0.0005 ± 0.021
